Values of other authors in patent publication US11014971B2, “Peptibodies, compositions thereof, and methods of treating atrial fibrillation” (University of South Florida, priority 2016, dated 2021).

Key:
[1] = target: T1, IKACh (Homo sapiens, UniProt P48544+P48549)
T1 sequence (P48549 1-501): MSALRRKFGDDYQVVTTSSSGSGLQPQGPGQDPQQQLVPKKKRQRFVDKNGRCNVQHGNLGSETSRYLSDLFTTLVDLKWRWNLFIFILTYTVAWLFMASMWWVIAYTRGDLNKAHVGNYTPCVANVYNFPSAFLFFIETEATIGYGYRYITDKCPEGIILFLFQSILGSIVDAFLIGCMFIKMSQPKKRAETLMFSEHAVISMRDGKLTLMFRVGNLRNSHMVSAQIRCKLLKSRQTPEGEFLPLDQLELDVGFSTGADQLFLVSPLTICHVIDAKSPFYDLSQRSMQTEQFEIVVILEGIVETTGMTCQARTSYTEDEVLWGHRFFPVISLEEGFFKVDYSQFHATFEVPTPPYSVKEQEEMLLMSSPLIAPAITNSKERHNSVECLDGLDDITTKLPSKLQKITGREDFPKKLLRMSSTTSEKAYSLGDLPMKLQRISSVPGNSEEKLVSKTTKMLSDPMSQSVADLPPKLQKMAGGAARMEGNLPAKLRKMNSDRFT
T1 sequence (P48544 1-419): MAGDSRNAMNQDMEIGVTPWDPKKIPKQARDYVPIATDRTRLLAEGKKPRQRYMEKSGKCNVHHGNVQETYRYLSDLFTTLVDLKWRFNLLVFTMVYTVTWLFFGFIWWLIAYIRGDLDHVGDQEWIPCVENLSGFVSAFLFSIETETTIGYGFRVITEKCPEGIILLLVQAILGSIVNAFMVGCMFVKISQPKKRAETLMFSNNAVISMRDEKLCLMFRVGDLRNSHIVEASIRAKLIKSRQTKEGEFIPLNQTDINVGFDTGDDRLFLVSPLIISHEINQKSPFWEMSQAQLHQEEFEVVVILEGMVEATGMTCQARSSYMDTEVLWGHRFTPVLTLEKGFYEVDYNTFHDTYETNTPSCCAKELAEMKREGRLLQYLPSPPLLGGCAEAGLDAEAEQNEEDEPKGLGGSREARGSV

[2] = system: paroxysmal AF and atrial flutter in patients
[3] = system: atrial action potential in a normal heart

Row | Compound | Concentrations at which IKACh is selectively inhibited [1] | Reversion of paroxysmal AF in patients ([2]; paroxysmal AF) | Effect on the action potential duration in normal atria [3] | Reversion of atrial flutter in patients ([2]; atrial flutter)
1 | Cc1cc(CO)nc2cc3c(cc12)OC(C)(C)[C@H](O)[C@H]3NCCc1ccccc1 [NTC-801] | submicromolar | failed to revert |  | 
2 | Tertiapin |  |  | minimal effects | 
3 | Cc1cc(C(=O)N(C)[C@H](CN2CC(O)C2)C(C)C)ccc1F [AZD2927] | submicromolar |  |  | failed to revert
